Results as given in PMC8348161, “Cardiolipin-Containing Lipid Membranes Attract the Bacterial Cell Division Protein DivIVA” (International Journal of Molecular Sciences, 2021).
pKd: −log10 of the molar value.

Molecular target: T1, DivIVACd (Clostridioides difficile, UniProt Q182V3)
T1 construct: gene CD630_26190; full length, untagged (pET-26b) or His-SUMO tag cut by Ulp1 without extra residues; E. coli BL21(DE3)pLysS; forms large polymers
T1 sequence (Q182V3 1-175): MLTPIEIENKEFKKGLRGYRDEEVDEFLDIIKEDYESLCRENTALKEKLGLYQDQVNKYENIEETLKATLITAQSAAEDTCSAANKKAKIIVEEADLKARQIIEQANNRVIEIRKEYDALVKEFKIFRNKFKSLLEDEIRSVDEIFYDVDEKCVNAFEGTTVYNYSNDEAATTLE
Assay: QCM-D, protein titrated over supported lipid bilayer, Hill fit
Assay type: binding
Conditions: 5% CL in mixed bilayer (65% DOPC, 30% DOPG, 5% TOCL); protein concentration scale; Hill coefficient 1.0; pH 7.4, 250 mM KCl, 5 mM MgCl2, 23 °C

## CCCCCCCC/C=C\CCCCCCCC(=O)OC[C@H](COP(=O)(O)OCC(O)COP(=O)(O)OC[C@@H](COC(=O)CCCCCCC/C=C\CCCCCCCC)OC(=O)CCCCCCC/C=C\CCCCCCCC)OC(=O)CCCCCCC/C=C\CCCCCCCC (stereo partly shown) [TOCL, 1,3-bis[1,2-dioleoyl-sn-glycero-3-phospho]-glycerol]
  pKd: 5.89
